Measured values from PubChem BioAssay (NCI).
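Exposure lasted 48 hours, with cells grown in 96-well plates and compounds tested at five concentrations. Here, GI50 denotes the concentration required for 50% inhibition of growth. TGI: concentration producing complete growth inhibition.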

Columns and labels:
Assay in all cases: NCI tumour cell line growth inhibition, 48 h; in the data active means GI50 below about 0.43 µM; inactive means the rest
U251 CNS = tested on: U251 CNS
786-0 renal = tested on: 786-0 renal
SF-295 CNS = tested on: SF-295 CNS
HCT-15 colon = tested on: HCT-15 colon
OVCAR-8 ovarian = tested on: OVCAR-8 ovarian
DU-145 prostate = tested on: DU-145 prostate
COLO 205 colon = tested on: COLO 205 colon
SK-MEL-5 melanoma = tested on: SK-MEL-5 melanoma
UO-31 renal = tested on: UO-31 renal

O=C(O)CCNc1ccccc1C(=O)O
> 100 µM: TGI (U251 CNS) | TGI (786-0 renal) | TGI (SF-295 CNS) | TGI (HCT-15 colon) | TGI (OVCAR-8 ovarian) | TGI (DU-145 prostate) | TGI (COLO 205 colon) | TGI (SK-MEL-5 melanoma) | TGI (UO-31 renal)

CC(=O)N[C@@H](Cc1ccc(OP(=O)(O)O)cc1)C(=O)N[C@H]1CCC(=O)N2CCC[C@@H](C(=O)NCc3ccc(Cl)cc3)N2C1=O
inactive: GI50 (U251 CNS) > 25 µM | GI50 (786-0 renal) > 25 µM | GI50 (SF-295 CNS) > 25 µM | GI50 (HCT-15 colon) > 25 µM | GI50 (OVCAR-8 ovarian) > 25 µM | GI50 (DU-145 prostate) > 25 µM | GI50 (COLO 205 colon) > 25 µM | GI50 (SK-MEL-5 melanoma) > 25 µM | GI50 (UO-31 renal) > 25 µM
> 25 µM: TGI (U251 CNS) | TGI (786-0 renal) | TGI (SF-295 CNS) | TGI (HCT-15 colon) | TGI (OVCAR-8 ovarian) | TGI (DU-145 prostate) | TGI (COLO 205 colon) | TGI (SK-MEL-5 melanoma) | TGI (UO-31 renal)

COc1ccc2oc(=O)cc(C(c3ccc[nH]3)c3ccc[nH]3)c2c1
11.5 µM: TGI (786-0 renal) | TGI (HCT-15 colon)
0.549 µM: TGI (COLO 205 colon)
12.8 µM: TGI (DU-145 prostate)
12.9 µM: TGI (U251 CNS)
0.214 µM: TGI (SF-295 CNS)
11.9 µM: TGI (UO-31 renal)
active: GI50 (U251 CNS) 0.11 µM | GI50 (786-0 renal) 0.281 µM | GI50 (SF-295 CNS) 0.092 µM | GI50 (HCT-15 colon) 0.1 µM | GI50 (OVCAR-8 ovarian) 0.116 µM | GI50 (COLO 205 colon) 0.221 µM | GI50 (SK-MEL-5 melanoma) 0.08 µM | GI50 (UO-31 renal) 0.127 µM
14.2 µM: TGI (OVCAR-8 ovarian)
0.141 µM: TGI (SK-MEL-5 melanoma)

O=C(O)C/C(=C\c1ccco1)C(=O)O
> 100 µM: TGI (U251 CNS) | TGI (786-0 renal) | TGI (SF-295 CNS) | TGI (HCT-15 colon) | TGI (OVCAR-8 ovarian) | TGI (DU-145 prostate) | TGI (COLO 205 colon) | TGI (SK-MEL-5 melanoma) | TGI (UO-31 renal)

COc1ccc(OC)c(/C=N/NC(=O)Cc2csc3nc(-c4ccc(Br)cc4)cn23)c1
inactive: GI50 (U251 CNS) 13.8 µM | GI50 (786-0 renal) 26.3 µM | GI50 (SF-295 CNS) 12.3 µM | GI50 (HCT-15 colon) 7.42 µM | GI50 (OVCAR-8 ovarian) 11.6 µM | GI50 (DU-145 prostate) 17.9 µM | GI50 (COLO 205 colon) 35.7 µM | GI50 (SK-MEL-5 melanoma) 8.89 µM | GI50 (UO-31 renal) 60.6 µM
48 µM: TGI (DU-145 prostate)
34.6 µM: TGI (SF-295 CNS)
31.4 µM: TGI (U251 CNS)
42.5 µM: TGI (SK-MEL-5 melanoma)
65.1 µM: TGI (HCT-15 colon)
38.2 µM: TGI (OVCAR-8 ovarian)
> 100 µM: TGI (786-0 renal) | TGI (COLO 205 colon) | TGI (UO-31 renal)

FC(F)(F)c1nc(N2CCCC2)ncc1-c1nnnn1-c1ccc(Cl)cc1
> 100 µM: TGI (U251 CNS) | TGI (786-0 renal) | TGI (SF-295 CNS) | TGI (HCT-15 colon) | TGI (OVCAR-8 ovarian) | TGI (DU-145 prostate) | TGI (UO-31 renal)
inactive: GI50 (U251 CNS) 33 µM | GI50 (786-0 renal) 33.2 µM | GI50 (SF-295 CNS) 19 µM | GI50 (HCT-15 colon) 28.5 µM | GI50 (OVCAR-8 ovarian) 25 µM | GI50 (DU-145 prostate) 48.4 µM | GI50 (COLO 205 colon) 10.7 µM | GI50 (SK-MEL-5 melanoma) 12 µM | GI50 (UO-31 renal) 16.8 µM
27.5 µM: TGI (COLO 205 colon)
28.3 µM: TGI (SK-MEL-5 melanoma)

CN(Cc1cnc2nc(N)nc(N)c2n1)c1ccc(C(=O)NC(CCC(=O)O)C(=O)O)cc1C(F)(F)F (stereo unspecified)
> 100 µM: TGI (U251 CNS) | TGI (786-0 renal) | TGI (SF-295 CNS) | TGI (HCT-15 colon) | TGI (DU-145 prostate) | TGI (COLO 205 colon) | TGI (SK-MEL-5 melanoma) | TGI (UO-31 renal)
> 66.7 µM: TGI (OVCAR-8 ovarian)

N=C(N)c1ccc(OCc2cccc(COc3ccc(C(=N)N)cc3)c2)cc1
15.1 µM: TGI (786-0 renal)
9.35 µM: TGI (SF-295 CNS)
4.28 µM: TGI (SK-MEL-5 melanoma)
> 100 µM: TGI (HCT-15 colon) | TGI (UO-31 renal)
20.3 µM: TGI (DU-145 prostate)
inactive: GI50 (U251 CNS) 3.73 µM | GI50 (786-0 renal) 4.56 µM | GI50 (SF-295 CNS) 2.82 µM | GI50 (HCT-15 colon) 17.8 µM | GI50 (OVCAR-8 ovarian) 11.3 µM | GI50 (DU-145 prostate) 6.12 µM | GI50 (COLO 205 colon) 15.1 µM | GI50 (SK-MEL-5 melanoma) 1.96 µM | GI50 (UO-31 renal) 42.1 µM
38.4 µM: TGI (OVCAR-8 ovarian)
17.2 µM: TGI (U251 CNS)
40.3 µM: TGI (COLO 205 colon)
